Test results reported in patent US8912121B2, “Herbicidal compositions comprising 4-amino-3-chloro-5-fluoro-6-(4-chloro-2-fluoro-3-methoxyphenyl)pyridine-2-carboxylic acid or a derivative thereof and certain PS II inhibitors” (Dow Agrosciences LLC, priority 2012, dated 2014).

How the values were obtained:
[1] = test system: AMARE (Amaranthus retroflexus, redroot pigweed); test: Postemergence herbicidal activity of mixtures in cereal crops, greenhouse; assay type: in vivo, Amaranthus retroflexus L.
Description: (§1) Seeds of the desired test plant species were planted in Sun Gro MetroMix® 306 planting mixture, which typically has a pH of 6.0 to 6.8 and an organic matter content of about 30 percent, in plastic pots with a surface area of 103.2 square centimeters (cm^2). When required to ensure good germination and healthy plants, a fungicide treatment and/or other chemical or physical treatment was applied. The plants were grown for 7-36 days in a greenhouse with an approximate 14 hour photoperiod which was maintained at about 18° C. during the day and about 17° C. during the night. Nutrients and water were added on a regular basis and supplemental lighting was provided with overhead metal halide 1000-Watt lamps as necessary. The plants were employed for testing when they reached the second or third true leaf stage.
(§2) Treatments consisted of the benzyl ester of 4-amino-3-chloro-5-fluoro-6-(4-chloro-2-fluoro-3-methoxy-phenyl)pyridine-2-carboxylic acid (Compound A), formulated as an SC, a second cereal herbicide alone and then both in combination.
(§3) Other herbicidal components were applied on an active ingredient basis and included PSII-inhibiting herbicides.
(§4) Measured aliquots of benzyl ester of 4-amino-3-chloro-5-fluoro-6-(4-chloro-2-fluoro-3-methoxy-phenyl)pyridine-2-carboxylic acid (Compound A) were placed in 25 milliliter (mL) glass vials and diluted in a volume of 1.25% (v/v) Agri-Dex® crop oil concentrate to obtain stock solutions. Compound requirements are based upon a 12 mL application volume at a rate of 187 liters per hectare (L/ha). Spray solutions of the second cereal herbicide and experimental compound mixtures were prepared by adding the stock solutions to the appropriate amount of dilution solution to form 12 mL spray solution with active ingredients in two- and three-way combinations. Formulated compounds were applied to the plant material with an overhead Mandel track sprayer equipped with an 8002E nozzle calibrated to deliver 187 L/ha over an application area of 0.503 square meters (m^2) at a spray height of 18 inches (46 cm) above average plant canopy. Control plants were sprayed in the same manner with the solvent blank.
(§5) The treated plants and control plants were placed in a greenhouse as described above and watered by sub-irrigation to prevent wash-off of the test compounds. After 20-22 days, the condition of the test plants as compared with that of the control plants was determined visually and scored on a scale of 0 to 100 percent where 0 corresponds to no injury and 100 corresponds to complete kill.
Colby's equation was used to determine the herbicidal effects expected from the mixtures (Colby, S. R. 1967. Calculation of the synergistic and antagonistic response of herbicide combinations. Weeds 15:20-22). […]

[2] = test system: KCHSC (Kochia scoparia, kochia); test: as above; assay type: in vivo, Kochia scoparia (L.) Schrad.
Description: as §1, §2, §3, §4, §5
(§6) Colby's equation was used to determine the herbicidal effects expected from the mixtures (Colby, S. R. 1967. Calculation of the synergistic and antagonistic response of herbicide combinations. Weeds 15:20-22).
(§7) The following equation was used to calculate the expected activity of mixtures containing two active ingredients, A and B: Expected=A+B−(A×B/100)

[3] = test system: IPOHE (Ipomoea hederacea, ivyleaf morningglory); test: Pre-emergence soil-applied mixtures, greenhouse; assay type: in vivo, Ipomoea hederacea (L.) Jacq.
Text: Seeds or nutlets of the desired test plant species were planted in a soil matrix prepared by mixing a loam soil (32 percent silt, 23 percent clay, and 45 percent sand, with a pH of about 6.5 and an organic matter content of about 1.9 percent) and calcareous grit in an 80 to 20 ratio. The soil matrix was contained in plastic pots with a volume of 1 quart and a surface area of 83.6 square centimeters (cm^2).
Treatments consisted of the benzyl ester of 4-amino-3-chloro-5-fluoro-6-(4-chloro-2-fluoro-3-methoxy-phenyl)pyridine-2-carboxylic acid (compound A) formulated as an SC (suspension concentrate) and various herbicidal components alone and in combination. Forms of compound A were applied on an acid equivalent basis.
Other herbicidal components were applied on an acid equivalent or active ingredient basis and included the PSII-inhibiting herbicides, atrazine formulated as Atrazine® 90WDG, metribuzin formulated as Metribuzin 75DF, simazine formulated as Princep Caliber 90, tebuthiuron formulated as Spike 80DF, cyanazine (technical grade material), hexazinone (technical grade material), linuron (technical grade material), terbuthylazine (technical grade material), and diuron formulated as Diuron 4L.
Treatment requirements were calculated based upon the rates being tested, the concentration of active ingredient or acid equivalent in the formulation, and a 12 mL application volume at a rate of 187 L/ha.
For treatments comprised of formulated compounds, measured amounts of compounds were placed individually in 25 mL glass vials and diluted in a volume of 1.25% (v/v) Agri-Dex® crop oil concentrate (COC) to obtain 12× stock solutions. […] Application solutions were prepared by adding an appropriate amount of each stock solution (e.g., 1 mL) and diluted to the appropriate final concentrations with the addition of 10 mL of an aqueous mixture of 1.25% (v/v) COC so that the final spray solutions contained 1.25% (v/v) COC.
For treatments comprised of technical compounds, weighed amounts can be placed individually in 25 mL glass vials and dissolved in a volume of 97:3 (v/v) acetone/DMSO to obtain 12× stock solutions. […]
For treatments comprised of formulated and technical compounds, weighed amounts of the technical materials can be placed individually in 25 mL glass vials and dissolved in a volume of 97:3 (v/v) acetone/DMSO to obtain 12× stock solutions, and measured amounts of the formulated compounds can be placed individually in 25 mL glass vials and diluted in a volume of 1.5% (v/v) COC or water to obtain 12× stock solutions. […]

[4] = test system: LAMPU (Lamium purpureum, purple deadnettle); test: Postemergence herbicidal activity of mixtures in cereal crops, greenhouse; assay type: in vivo, Lamium purpureum L.
Description: as §1, §2, §3, §4, §5, §6, §7

[5] = Compound A Benzyl Ester 2.5 g ai/ha
[6] = Compound A Benzyl Ester 5 g ai/ha
[7] = Compound A Benzyl Ester 10 g ai/ha

SMILES: COc1c(Cl)ccc(-c2nc(C(=O)OCc3ccccc3)c(Cl)c(N)c2F)c1F [Compound A Benzyl Ester, benzyl ester of 4-amino-3-chloro-5-fluoro-6-(4-chloro-2-fluoro-3-methoxy-phenyl)pyridine-2-carboxylic acid]
- Visual Weed Control (%) - 21 DAA AMARE Obs [1, 5]: 20%
- Visual Weed Control (%) - 21 DAA AMARE Obs [1, 6]: 38%
- Visual Weed Control (%)-21 DAA KCHSC Obs [2, 5]: 20%
- Visual Weed Control (%)-21 DAA KCHSC Obs [2, 6]: 41%
- Visual Weed Control (%)-21 DAA KCHSC Obs [2, 7]: 62%
- Visual Weed Control (%) - 33 DAA IPOHE Obs ([3]; Compound A Benzyl Ester 16 g ae/ha): 0%
- Visual Weed Control (%) - 33 DAA IPOHE Obs ([3]; Compound A Benzyl Ester 32 g ae/ha): 5%
- Visual Weed Control (%)-21 DAA LAMPU Obs [4, 5]: 80%
- Visual Weed Control (%)-21 DAA LAMPU Obs ([4]; Compound A Benzyl Ester 2.5 g ai/ha, Table 22): 80%
- Visual Weed Control (%)-21 DAA LAMPU Obs [4, 6]: 86%
- Visual Weed Control (%)-21 DAA LAMPU Obs ([4]; Compound A Benzyl Ester 5 g ai/ha, Table 22): 86%
- Visual Weed Control (%)-21 DAA LAMPU Obs [4, 7]: 94%
- Visual Weed Control (%)-21 DAA LAMPU Obs ([4]; Compound A Benzyl Ester 10 g ai/ha, Table 22): 94%
